Reference: patent US4596829A, “7-acylaminocephalosporanic acid derivatives and processes for the preparation thereof” (Fujisawa Pharmaceutical Co., Ltd., priority 1980, dated 1986)
Converted amounts (≈) assume the structure as drawn.

What was measured:
[1] = system: Proteus vulgaris IAM-1025; assay: in vitro antimicrobial activity, two-fold agar-plate dilution method (MIC); format: cell-based; conditions: IAM1025, heart infusion agar, 37° C., 20 hours
Protocol: (§1) In vitro antimicrobial activity was determined by the two-fold agar-plate dilution method as described below.
(§2) One loopful of an overnight culture of each test strain in Tripticase-soy broth (approximately 10^8 viable cells per ml) was streaked on heart infusion agar (HI-agar) containing graded concentrations of antimicrobial agents, and the minimal inhibitory concentration (MIC) was expressed in term of μg/ml after incubation at 37° C. for 20 hours.

[2] = system: Pseudomonas aeruginosa NCTC-10490; assay: as above; format: cell-based; conditions: NCTC10490, heart infusion agar, 37° C., 20 hours
Protocol: as §1, §2

Structure (SMILES) | MIC [1] [µg/mL] | MIC [2] [µg/mL]
C#CCO/N=C(\C(=O)NC1C(=O)N2C(C(=O)O)=C(CSc3nncs3)CSC12)c1nc(N)sc1Cl (stereo not drawn) [Compound 2, 7-[2-(2-amino-5-chlorothiazol-4-yl)-2-propargyloxyiminoacetamido]-3-(1,3,4-thiadiazol-2-yl)thiomethyl-3-cephem-4-carboxylic acid (syn isomer)] | 1.56 (≈ 2.73 µM) | 0.78 (≈ 1.36 µM)
C=CCO/N=C(\C(=O)NC1C(=O)N2C(C(=O)O)=C(CSc3nncs3)CSC12)c1nc(N)sc1Cl (stereo not drawn) [Compound 4, 7-[2-(2-amino-5-chlorothiazol-4-yl)-2-allyloxyiminoacetamido]-3-(1,3,4-thiadiazol-2-yl)thiomethyl-3-cephem-4-carboxylic acid (syn isomer)] | 1.56 (≈ 2.72 µM) | 0.78 (≈ 1.36 µM)

These reach a lower MIC [1]. Values come first.

MIC [1] [µg/mL] | MIC [2] [µg/mL] | Structure (SMILES)
0.05 (≈ 0.101 µM) | 0.78 (≈ 1.57 µM) | Nc1nc(/C(=N/OCC(=O)O)C(=O)NC2C(=O)N3C(C(=O)O)=C(Cl)CSC23)c(Cl)s1 (stereo not drawn) [Compound 6, 7-[2-(2-amino-5-chlorothiazol-4-yl)-2-carboxymethoxyiminoacetamido]-3-chloro-3-cephem-4-carboxylic acid (syn isomer)]
0.39 (≈ 0.65 µM) | 0.39 (≈ 0.65 µM) | Nc1nc(/C(=N/OC2C=CCC2)C(=O)NC2C(=O)N3C(C(=O)O)=C(CSc4nncs4)CSC23)c(Cl)s1 (stereo not drawn) [Compound 5, 7-[2-(2-amino-5-chlorothiazol-4-yl)-2-(2-cyclopenten-1-yl)oxyiminoacetamido]-3-(1,3,4-thiadiazol-2-yl)thiomethyl-3-cephem-4-carboxylic acid (syn isomer)]
0.025 (≈ 0.0422 µM) | 0.78 (≈ 1.32 µM) | Nc1nc(/C(=N/OCC(=O)O)C(=O)NC2C(=O)N3C(C(=O)O)=C(CSc4nncs4)CSC23)c(Cl)s1 (stereo not drawn) [Compound 3, 7-[2-(2-amino-5-chlorothiazol-4-yl)-2-carboxymethoxyiminoacetamido]-3-(1,3,4-thiadiazol-2-yl)thiomethyl-3-cephem-4-carboxylic acid (syn isomer)]
0.05 (≈ 0.105 µM) | 0.78 (≈ 1.64 µM) | CC(O/N=C(\C(=O)NC1C(=O)N2C(C(=O)O)=CCSC12)c1nc(N)sc1Cl)C(=O)O (stereo not drawn) [Compound 1, 7-[2-(2-amino-5-chlorothiazol-4-yl)-2-(1-carboxyethoxyimino)acetamido]-3-cephem-4-carboxylic acid (syn isomer)]
